Where a name gives a salt, the structure may show the parent alone.
Assays:
Assay in all cases: Spore germination test
Assay type in all cases: cell-based
Alternaria solani = conditions: AS, 48 hours
Method in brief: (§1)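 Compound was delivered in acetone into water agar at final 40, 10, 2.5 and 1 ppm. Alternaria solani and Botrytis cinerea spores were applied as sterile-water suspensions, while Erysiphe polygoni and Uromyces phaseoli spores were brushed on from infected leaves. After 48 h at 24° C., percentage germination was converted to a rating.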

Erysiphe polygoni = conditions: EP, 48 hours
Method in brief: as §1

Uromyces phaseoli = conditions: UP, 48 hours
Method in brief: as §1

Compound	Spore Germination Rating (Alternaria solani; 1.0 ppm)	Spore Germination Rating (Alternaria solani; 2.5 ppm)	Spore Germination Rating (Alternaria solani; 10 ppm)	Spore Germination Rating (Alternaria solani; 40 ppm)	Spore Germination Rating (Erysiphe polygoni; 1.0 ppm)	Spore Germination Rating (Erysiphe polygoni; 2.5 ppm)	Spore Germination Rating (Erysiphe polygoni; 10 ppm)	Spore Germination Rating (Erysiphe polygoni; 40 ppm)	Spore Germination Rating (Uromyces phaseoli; 1.0 ppm)	Spore Germination Rating (Uromyces phaseoli; 2.5 ppm)	Spore Germination Rating (Uromyces phaseoli; 10 ppm)	Spore Germination Rating (Uromyces phaseoli; 40 ppm)	Spore Germination Rating (Alternaria solani; 2.5 ppm, hydrochloride)	Spore Germination Rating (Alternaria solani; 10 ppm, hydrochloride)	Spore Germination Rating (Uromyces phaseoli; 1.0 ppm, hydrochloride)	Spore Germination Rating (Uromyces phaseoli; 2.5 ppm, hydrochloride)	Spore Germination Rating (Uromyces phaseoli; 10 ppm, hydrochloride)	Spore Germination Rating (Uromyces phaseoli; 40 ppm, hydrochloride)
3-chloro-5-(bromophenoxy)-4H-1,2,6-thiadiazin-4-one [Compound 33]	1 (10-40)	0 (0-10)	0 (0-10)	0 (0-10)	0 (0-10)	0 (0-10)	0 (0-10)	0 (0-10)	0 (0-10)	0 (0-10)	0 (0-10)	0 (0-10)	–	–	–	–	–	–
3-chloro-5-[methylaminocarbonyloxy)phenoxyl]-4H-1,2,6-thiadiazin-4-one [Compound 36]	4 (80-100)	4 (80-100)	2 (40-60)	0 (0-10)	4 (80-100)	3 (60-80)	1 (10-40)	1 (10-40)	4 (80-100)	2 (40-60)	0 (0-10)	0 (0-10)	–	–	–	–	–	–
O=c1c(Cl)nsnc1Oc1ccccc1 [Compound 2, 3-chloro-5-phenoxy-4H--1,2,6-thiadiazin-4-one]	4 (80-100)	0 (0-10)	0 (0-10)	0 (0-10)	4 (80-100)	4 (80-100)	3 (60-80)	1 (10-40)	2 (40-60)	2 (40-60)	0 (0-10)	0 (0-10)	–	–	–	–	–	–
Cc1ccc(Oc2nsnc(Cl)c2=O)cc1 [Compound 3, 3-chloro-5-(4-methylphenoxy)-4H--1,2,6-thiadiazin-4-one]	4 (80-100)	4 (80-100)	0 (0-10)	0 (0-10)	4 (80-100)	4 (80-100)	4 (80-100)	1 (10-40)	4 (80-100)	1 (10-40)	0 (0-10)	0 (0-10)	–	–	–	–	–	–
CC(C)(C)c1ccc(Oc2nsnc(Cl)c2=O)cc1 [Compound 4, 3-chloro-5-(4-tert-butylphnoxy)-4H--1,2,6-thiadiazin-4-one]	4 (80-100)	4 (80-100)	4 (80-100)	4 (80-100)	4 (80-100)	3 (60-80)	2 (40-60)	0 (0-10)	4 (80-100)	4 (80-100)	0 (0-10)	0 (0-10)	–	–	–	–	–	–
COc1ccc(Oc2nsnc(Cl)c2=O)cc1 [Compound 5, 3-chloro-5-(4-methoxyphenoxy)4H--1,2,6-thiadiazin-4-one]	2 (40-60)	0 (0-10)	0 (0-10)	0 (0-10)	4 (80-100)	4 (80-100)	4 (80-100)	0 (0-10)	1 (10-40)	1 (10-40)	0 (0-10)	0 (0-10)	–	–	–	–	–	–
CCCCOc1ccc(Oc2nsnc(Cl)c2=O)cc1 [Compound 6, 3-chloro-5-(4-n-butoxyphenoxy)-4H--1,2,6-thiadiazin-4-one]	4 (80-100)	4 (80-100)	4 (80-100)	4 (80-100)	0 (0-10)	0 (0-10)	0 (0-10)	0 (0-10)	1 (10-40)	0 (0-10)	0 (0-10)	0 (0-10)	–	–	–	–	–	–
CCOC(=O)c1ccc(Oc2nsnc(Cl)c2=O)cc1 [Compound 7, 3-chloro-5-(4-ethoxycarbonylphenoxy)-4H--1,2,6-thiadiazin-4-one]	4 (80-100)	4 (80-100)	4 (80-100)	4 (80-100)	4 (80-100)	3 (60-80)	2 (40-60)	0 (0-10)	0 (0-10)	0 (0-10)	0 (0-10)	0 (0-10)	–	–	–	–	–	–
CC(=O)Nc1ccc(Oc2nsnc(Cl)c2=O)cc1 [Compound 8, 5-(4-acetylaminophenoxy)-3-chloro-4H--1,2,6-thiadiazin-4-one]	3 (60-80)	2 (40-60)	2 (40-60)	0 (0-10)	4 (80-100)	4 (80-100)	4 (80-100)	2 (40-60)	4 (80-100)	4 (80-100)	0 (0-10)	0 (0-10)	–	–	–	–	–	–
O=c1c(Cl)nsnc1Oc1ccc([N+](=O)[O-])cc1 [Compound 9, 3-chloro-5-(4-nitrophenoxy)-4H--1,2,6-thiadiazin-4-one]	0 (0-10)	0 (0-10)	0 (0-10)	0 (0-10)	4 (80-100)	4 (80-100)	4 (80-100)	4 (80-100)	0 (0-10)	0 (0-10)	0 (0-10)	0 (0-10)	–	–	–	–	–	–
N#Cc1ccc(Oc2nsnc(Cl)c2=O)cc1 [Compound 10, 3-chloro-5-(4-cyanophenoxy)-4H--1,2,6-thiadiazin-4-one]	1 (10-40)	1 (10-40)	1 (10-40)	1 (10-40)	2 (40-60)	2 (40-60)	2 (40-60)	1 (10-40)	0 (0-10)	0 (0-10)	0 (0-10)	0 (0-10)	–	–	–	–	–	–
O=c1c(Cl)nsnc1Oc1ccc(F)cc1 [Compound 11, 3-chloro-5-(4-fluorophenoxy)-4H--1,2,6-thiadiazin-4-one]	4 (80-100)	0 (0-10)	0 (0-10)	0 (0-10)	0 (0-10)	0 (0-10)	0 (0-10)	0 (0-10)	4 (80-100)	0 (0-10)	0 (0-10)	0 (0-10)	–	–	–	–	–	–
O=c1c(Cl)nsnc1Oc1ccc(Cl)cc1 [Compound 12, 3-chloro-5-(4-chlorophenoxy)-4H--1,2,6-thiadiazin-4-one]	3 (60-80)	1 (10-40)	1 (10-40)	0 (0-10)	4 (80-100)	4 (80-100)	2 (40-60)	0 (0-10)	1 (10-40)	1 (10-40)	0 (0-10)	0 (0-10)	–	–	–	–	–	–
Nc1ccc(Oc2nsnc(Cl)c2=O)cc1 [Compound 27, 5-(4-aminophenoxy)-3-chloro-4H--1,2,6-thiadiazine-4-one hydrochloride]	–	–	–	–	–	–	–	–	–	–	–	–	4 (80-100)	3 (60-80)	4 (80-100)	1 (10-40)	1 (10-40)	0 (0-10)

From patent US4450269A, “Mono-5-substituted-3-chloro-4H-1,2,6-thiadiazin-4-one antifungal agents” (FMC Corporation, priority 1980, dated 1984)
